Reference: patent US20250332173A1, “COMPOUNDS AND METHODS FOR MODULATING NUCLEIC ACID SPLICING” (REMIX THERAPEUTICS INC., priority 2021, published 2025)
Structures can show the parent of a compound that is named as a salt. Where two headings read alike, the source gives them in different places.

How the values were obtained:
Assay type in all cases: cell-based, human
[1] = tested on: HTT; test: HiBiT protein abundance assay, HTT HiBiT K562 cell line; conditions: 24 hours, top dose 10 μM
In short: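 K562 knock-in lines with endogenous HiBiT-tagged target, 10,000 cells/well in IMDM + FBS, treated 24 h at 37° C with 10-point 3-fold dilutions (top 10 μM final; DMSO ≤0.25%). Lytic Nano-Glo HiBiT luminescence normalized to untagged K562 baseline and DMSO controls; IC50 = concentration giving 50% abundance via four-parameter fit.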

[2] = tested on: MYB mRNA; test: RT-qPCR splicing assay, MYB canonical junction (CJ) and alternative junction (AJ) mRNA; conditions: Homo sapiens; for AC50: increase in MYB alternative junction (AJ) mRNA, read-out: MYB AJ AC50
In short: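 24 h treatment, 37 °C/5% CO2; A673 or K562; 11-pt 3-fold series, top 10 uM final; DMSO ≤0.25%. Cell lysis with DNase I, then 1-step RT-qPCR. Housekeeping normalization: PPIA (A673), GAPDH or GUSB (K562).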

[3] = tested on: Target C; test: HiBiT protein abundance assay, Target C (Promega Nano-Glo HiBiT Lytic Detection System, knock-in K562 cell line); conditions: Homo sapiens, K562, 24 h, HiBiT K562 cell line, 24 hours, top dose 10 μM; read-out: Effect on protein abundance, Target C (IC50 category)
In short: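 Knock-in K562 cells carrying HiBiT-tagged Target C, 10,000 per well, treated 24 h at 37 °C with 10-point threefold dilutions (top 10 μM final, ≤0.25% DMSO). Lytic HiBiT luminescence read; response normalised to unmodified K562 and DMSO controls, four-parameter fit interpolated at 50% for IC50.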

[4] = HiBiT K562 cell line, read-out: Effect on protein abundance, HTT (IC50 category)
[5] = Table 5 panel, canonical junction qPCR, compound concentration having 50% response in CJ decrease, read-out: MYB IC50 (decrease in CJ mRNA levels)
[6] = decrease in MYB canonical junction (CJ) mRNA, RT-qPCR, read-out: MYB CJ IC50
[7] = HiBiT lytic detection, modified K562 cells, read-out: Effect on protein abundance, HTT (IC50)

IC50 [1, 4] [nM]	IC50 [2, 5] [nM]	IC50 [2, 6] [nM]	IC50 [3] [nM]	IC50 [1, 7] [nM]	SMILES	AC50 ([2]; RT-qPCR) [nM]
1000 to 10000	1000 to 10000	1000 to 10000	> 10000		Cc1cc(-c2ccc3c(=O)n(N4CCN(C)CC4)cnc3c2)cc2cn(C)nc12 [Compound 175]	1000 to 10000
1000 to 10000	100 to 1000	1000 to 10000	1000 to 10000		Cc1cn2nc(-c3ccc4c(=O)n(C5CCN(C)CC5)cnc4c3)cc(C)c2n1 [Compound 176]	100 to 1000
> 10000	> 10000	> 10000	> 10000		CN1CCC(c2ccc3c(=O)n(-c4ccc5nn(C)cc5c4)cnc3c2)CC1 [Compound 177]	> 10000
> 10000	> 10000	> 10000	> 10000		CN1CCN(c2ccc3c(=O)n(-c4ccc5cn(C)nc5c4)cnc3c2)CC1 [Compound 178]	> 10000
> 10000	> 10000	> 10000	> 10000		Cc1cc(-c2ccc3c(=O)n(C4CC(C)(C)NC(C)(C)C4)cnc3n2)cc2cn(C)nc12 [Compound 179]	> 10000
< 100	100 to 1000	100 to 1000	< 100		Cc1cn2nc(-c3ccc4c(=O)n(C5CCNCC5)cnc4c3)cc(C)c2n1 [Compound 181]	100 to 1000
1000 to 10000	1000 to 10000	1000 to 10000	< 100		Cc1cc(-c2ccc3c(=O)n(C4CCNC5(CC5)C4)ncc3c2)cc2cn(C)nc12 (stereo not shown) [Compound 512]	1000 to 10000
100 to 1000	1000 to 10000	1000 to 10000	1000 to 10000		Cc1nc2c(C)cc(-c3ccc4c(=O)n(C5CCNC6(CC6)C5)ncc4c3)cc2o1 (stereo not shown) [Compound 513]	1000 to 10000
< 100	< 100	< 100	< 100		COc1cc(-c2ccc3c(=O)n(C4CCNCC4)ccc3c2)nn2cc(C)nc12 [Compound 514, 6-(8-methoxy-2-methyl-imidazo[1,2-b]pyridazin-6-yl)-2-(4-piperidyl) isoquinolin-1-one; hydrochloride]	< 100
100 to 1000	1000 to 10000	100 to 1000	1000 to 10000		Cc1cn2nc(-c3ccc4c(=O)n(C5CCN(CCF)CC5)ncc4c3)cc(C)c2n1 [Compound 515]	1000 to 10000
1000 to 10000	1000 to 10000	1000 to 10000	1000 to 10000		Cc1cn2nc(-c3ccc4c(=O)n(C5CCNCC5)ccc4c3)cc(C(=O)O)c2n1 [Compound 516, 2-methyl-6-[1-oxo-2-(4-piperidyl)-6-isoquinolyl]imidazo[1,2-b]pyridazine-8-carboxylic acid]	1000 to 10000
1000 to 10000	100 to 1000	100 to 1000	1000 to 10000		COC(=O)c1cc(-c2ccc3c(=O)n(C4CCNCC4)ccc3c2)nn2cc(C)nc12 [Compound 517, methyl 2-methyl-6-[1-oxo-2-(4-piperidyl)-6-isoquinolyl]imidazo[1,2-b]pyridazine-8-carboxylate]	100 to 1000
1000 to 10000	1000 to 10000	> 10000	1000 to 10000		CNC(=O)c1cc(-c2ccc3c(=O)n(C4CCNCC4)ccc3c2)nn2cc(C)nc12 [Compound 518, N, 2-dimethyl-6-[1-oxo-2-(4-piperidyl)-6-isoquinolyl]imidazo[1,2-b]pyridazine-8-carboxamide]	1000 to 10000
< 100	< 100	< 100	< 100		Cc1cn2nc(-c3ccc4c(=O)n(C5CCNCC5)ccc4c3)cc(Oc3ccccc3)c2n1 [Compound 519, 6-(2-methyl-8-phenoxy-imidazo[1,2-b]pyridazin-6-yl)-2-(4-piperidyl)isoquinolin-1-one]	< 100
100 to 1000	100 to 1000	100 to 1000	1000 to 10000		Cc1cn2nc(-c3ccc4c(=O)n(C5CCNCC5)ccc4c3)cc(CC#N)c2n1 [Compound 520, 2-[2-methyl-6-[1-oxo-2-(4-piperidyl)-6-isoquinolyl]imidazo[1,2-b]pyridazin-8-yl]acetonitrile]	100 to 1000
1000 to 10000	1000 to 10000	1000 to 10000	1000 to 10000		Cn1ccc2c(cnn2-c2ccc3c(=O)n(C4CCNCC4)ccc3c2)c1=O [Compound 521]	1000 to 10000
> 10000	> 10000	> 10000	> 10000		Cn1ccc2nn(-c3ccc4c(=O)n(C5CCNCC5)ccc4c3)cc2c1=O [Compound 522, 6-{5-methyl-4-oxopyrazolo[4,3-c]pyridin-2-yl}-2-(piperidin-4-yl)isoquinolin-1-one]	> 10000
1000 to 10000	1000 to 10000	1000 to 10000	1000 to 10000		Cc1cn2nc(-c3ccc4c(=O)n(C5CCNCC5)ccc4c3)cc(C(N)=O)c2n1 [Compound 523, 2-methyl-6-[1-oxo-2-(4-piperidyl)-6-isoquinolyl]imidazo[1,2-b]pyridazine-8-carboxamide]	1000 to 10000
> 10000	> 10000	> 10000	> 10000		Cc1cn2nc(-c3ccc4c(=O)n(C5CCNCC5)ccc4c3)cc(C(=O)N(C)C)c2n1 [Compound 524, N, N, 2-trimethyl-6-[1-oxo-2-(4-piperidyl)-6-isoquinolyl]imidazo[1,2-b]pyridazine-8-carboxamide]	> 10000
< 100	100 to 1000	< 100	100 to 1000		Cc1cn2nc(-c3ccc4c(=O)n(C5CCNCC5)ccc4c3)cc(CO)c2n1 [Compound 525, 6-[8-(hydroxymethyl)-2-methyl-imidazo[1,2-b]pyridazin-6-yl]-2-(4-piperidyl) isoquinolin-1-one]	100 to 1000
100 to 1000	100 to 1000	100 to 1000	100 to 1000		Cc1cn2nc(-c3ccc4c(=O)n(C5CCNCC5)ccc4c3)cc(OCc3ccccc3)c2n1 [Compound 526, 6-(8-benzyloxy-2-methyl-imidazo[1,2-b]pyridazin-6-yl)-2-(4-piperidyl) isoquinolin-1-one]	100 to 1000
100 to 1000	100 to 1000	100 to 1000	100 to 1000		COC(=O)Cc1cc(-c2ccc3c(=O)n(C4CCNCC4)ccc3c2)nn2cc(C)nc12 [Compound 527]	100 to 1000
	100 to 1000	100 to 1000		100 to 1000	CNC1CCN(c2ccc3cc(-c4cc(C)c5nc(C)cn5n4)ccn3c2=O)C1 (stereo not shown) [Compound 1158]	100 to 1000
	< 100	< 100		< 100	Cc1cn2nc(-c3ccn4c(=O)c(C5CCNCC5)ccc4c3)cc(C)c2n1 [Compound 1181]	< 100

SMILES	IC50 [1, 4] [nM]	IC50 [2, 5] [nM]	IC50 [2, 6] [nM]	IC50 [3] [nM]	IC50 [1, 7] [nM]	AC50 ([2]; RT-qPCR) [nM]
CN(c1ccc2c(=O)n(-c3ccc4nn(C)cc4c3)cnc2c1)C1CCNCC1 [Compound 180]	> 10000	> 10000	> 10000	> 10000		> 10000
Cc1cn2nc(-c3ccn4c(=O)c(C5=CCNCC5)ncc4c3)cc(C)c2n1 [Compound 1182]		100 to 1000	100 to 1000		100 to 1000	100 to 1000
